Measured values reported in ChEMBL document CHEMBL1759919, “1α,25-Dihydroxyvitamin D3-3β-bromoacetate, a potential cancer therapeutic agent: synthesis and molecular mechanism of action” (Bioorg Med Chem Lett, 2011).
Active and inactive are the calls of the source. The calls are words filed in the database; no cut-off is given here.

Experiments:
Assay type in all cases: functional, cell-based
A498 [1] = assay: Induction of CYP24 mRNA expression in human A498 cells at 10^-6 M after 24 hrs by RT-PCR analysis
A498 [2] = assay: Induction of CYP24 mRNA expression in human A498 cells at 10^-8 M after 16 hrs by RT-PCR analysis
A498 [3] = assay: Induction of CYP24 mRNA expression in human A498 cells at 10^-8 M after 4 hrs by RT-PCR analysis

SMILES: C=C1/C(=C\C=C2/CCC[C@]3(C)[C@@H]([C@H](C)CCCC(C)(C)O)CC[C@@H]23)C[C@@H](OC(=O)CBr)C[C@@H]1O
- Activity (A498 [1]): Active
- Activity (A498 [2]): Active

SMILES: C=C1/C(=C\C=C2/CCC[C@]3(C)[C@@H]([C@H](C)CCCC(C)(C)O)CC[C@@H]23)C[C@@H](O)C[C@@H]1O
- Activity (A498 [3]): Active
- Activity (A498 [2]): Active
